Assay results reported in PubChem BioAssay AID1648 (Sanford-Burnham Center for Chemical Genomics, 2009).
Activity calls are given as the source filed them. The rule behind the calls is not given here.

target: Serine/threonine-protein kinase mTOR (Homo sapiens) (UniProt P42345); assay: mTOR FRB domain ligand binding – biophysical, NMR (AID 1648); conditions: NMR binding to FRB domain, chemical shift
Sequence (P42345 2015-2114): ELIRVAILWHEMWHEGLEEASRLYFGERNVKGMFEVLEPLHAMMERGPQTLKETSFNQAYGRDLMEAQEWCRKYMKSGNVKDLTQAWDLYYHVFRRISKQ

Compound | Kd
O=C(NCc1cccs1)c1nn2cccnc2c1Cl | > 4 mM (inactive)
NC(=O)CN1CC(=O)NC(=O)C1 | > 4 mM (inactive)
O=C(O)Cn1cc(C(=O)C2CC2)c2ccccc21 | > 4 mM (inactive)
CN1CCCCC1c1ccc(-c2cccnc2)nc1 (stereo unspecified) | > 4 mM (inactive)
COc1ccccc1NC(=O)C1CCCCC1 | > 4 mM (inactive)
O=C(c1ccc(F)cc1)N1CCN(c2ncccn2)CC1 | > 4 mM (inactive)
[O-][n+]1onc2c1CCc1c-2nn(-c2ccccc2)[n+]1[O-] | > 4 mM (inactive)
CC(C)=CCCC1(C)C=Cc2c(O)c3c(c(CC=C(C)C)c2O1)OC12C(=CC4CC1C(C)(C)OC2(C/C=C(/C)C(=O)O)C4=O)C3=O (stereo unspecified) | > 4 mM (inactive)
Cc1ccc(NC(=O)/C=C2\SC(=O)NC2=O)cc1 | > 4 mM (inactive)
Cc1cc(C)nc(N(C#N)Cc2ccccc2)n1 | > 4 mM (inactive)
c1ccc(Cc2nn3c(-c4ccncc4)nnc3s2)cc1 | > 4 mM (inactive)
Cc1cc2ncc(C(=O)O)c(C)n2n1 | > 4 mM (inactive)
CC(=O)Nc1cc(C(F)(F)F)ccc1N1CCOCC1 | > 4 mM (inactive)
CN1CCC[C@H]1c1cccnc1 | > 4 mM (inactive)
C=CCc1ccc2c(c1)OCO2 | > 4 mM (inactive)
CC(C1OC(C)(C)C(O)C1O)[C@@H]1CC[C@]2(C)C3=CCC4C(C)(C)C(=O)CC[C@]4(C)C3CC[C@@]12C (stereo partly specified) | > 4 mM (inactive)
COc1cccc(NC(=O)c2cccs2)c1 | > 4 mM (inactive)
OCc1ccc2c(c1)OCCO2 | > 4 mM (inactive)
COc1ccc(C(=O)/C=C2\NC(=S)NC2=O)cc1 | > 4 mM (inactive)
COC1C(O)C(O[C@H]2CC[C@]3(C=O)C4C(CC[C@]3(O)C2)[C@@]2(O)CC[C@H](C3=CC(=O)OC3)[C@@]2(C)C[C@H]4OC(C)=O)OC(C)C1OC(C)=O (stereo partly specified) | > 4 mM (inactive)
CC(C)=CCc1c2c(c3occ(-c4ccc(O)cc4)c(=O)c3c1O)C=CC(C)(C)O2 | > 4 mM (inactive)
CC(=O)c1cccc(NC(=O)Nc2c(C)nn(C)c2C)c1 | > 4 mM (inactive)
COc1cccc(-c2nc3ccc(O)cc3c(=O)o2)c1 | > 4 mM (inactive)

Compound | Kd
Cn1ccc(NC(=S)NC2CCCC2)n1 | > 4 mM (inactive)
CC(=O)Nc1ccc2c(c1)C(=O)N(C1CCCCC1)C2=O | > 4 mM (inactive)
Cc1sc2nc(NCCO)[nH]c(=O)c2c1C | > 4 mM (inactive)
Nc1cc(N)nc(SCc2ccccc2)n1 | > 4 mM (inactive)
CC(=O)c1cc2c(cc1O)OC(C)(C)C=C2 | > 4 mM (inactive)
Cc1c(N=CN2CCOCC2)c(=O)n(C)c(=O)n1C | > 4 mM (inactive)
CN(C)CC(O)C1CCOC(C)(C)C1 (stereo unspecified) | > 4 mM (inactive)
CNC(=S)N1CCN(C(=O)c2ccco2)CC1 | > 4 mM (inactive)
CC(C)=NNC(=O)C(=O)Nc1ccc(F)cc1 | > 4 mM (inactive)
CCc1ccccc1NC(=O)c1cnccn1 | > 4 mM (inactive)
COc1c(-c2ccccc2)oc2c(OC)cccc2c1=O | > 4 mM (inactive)
O=C(c1cc2ccccc2o1)N1CCCCCC1 | > 4 mM (inactive)
COC(=O)c1[nH]c2ccccc2c1C(=O)OC | > 4 mM (inactive)
Cc1ccc(S(=O)(=O)CC(N)=O)cc1 | > 4 mM (inactive)
Cc1cc(C)n2c(SCc3cccs3)nnc2n1 | > 4 mM (inactive)
COc1ccc2c(c1)OCC(Cc1ccc(OC)c(OC)c1)C2=O (stereo unspecified) | > 4 mM (inactive)
CN1C(=O)c2ccc(C(=O)NCc3ccccc3)cc2C1=O | > 4 mM (inactive)
CNC(=O)C(=O)Nc1c(C)cccc1C | > 4 mM (inactive)
c1ccc2c(c1)[nH]c1cnccc12 | > 4 mM (inactive)
Cc1ccc(SCC(=O)N2CCOCC2)cc1 | > 4 mM (inactive)
COC(=O)c1c(C)c2c(c(C)c1O)OC(=O)c1c(C)c(Cl)c(O)c(Cl)c1O2 | > 4 mM (inactive)
OCc1ccc(CN2CCOCC2)cc1 | > 4 mM (inactive)
O=C(CSc1ccc(Cl)cc1)N1CCOCC1 | > 4 mM (inactive)
